Test results published in PubChem BioAssay (NCI).
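In this assay, cells in 96-well plates receive the compound at five concentrations for 48 hours. Endpoints are linearly interpolated between the surrounding concentrations. At the GI50, growth is halved. TGI: concentration producing complete growth inhibition.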

Legend:
Assay in all cases: NCI tumour cell line growth inhibition, 48 h
HCC-2998 colon = system: HCC-2998 colon
NCI/ADR-RES ovarian = system: NCI/ADR-RES ovarian
HS 578T breast = system: HS 578T breast
ACHN renal = system: ACHN renal
HCT-15 colon = system: HCT-15 colon
MDA-MB-435 = system: MDA-MB-435
SR leukemia = system: SR leukemia
COLO 205 colon = system: COLO 205 colon
MOLT-4 leukemia = system: MOLT-4 leukemia
LOX IMVI melanoma = system: LOX IMVI melanoma

CC1CN(CCO)CC(C)O1 (configuration not stated)
TGI (HCC-2998 colon): > 100 µM | TGI (NCI/ADR-RES ovarian): > 100 µM | TGI (HS 578T breast): > 100 µM | TGI (ACHN renal): > 100 µM | TGI (HCT-15 colon): > 100 µM | TGI (MDA-MB-435): > 100 µM | TGI (SR leukemia): > 100 µM | TGI (COLO 205 colon): > 100 µM | TGI (MOLT-4 leukemia): > 100 µM

C[N+](C)(C)CC(=O)N/N=C(/C=C/c1ccccc1)CC1OC(=O)c2ccccc21 (configuration not stated)
TGI (HCC-2998 colon): > 100 µM | TGI (LOX IMVI melanoma): > 10 µM | TGI (ACHN renal): > 100 µM | TGI (HCT-15 colon): > 100 µM | TGI (COLO 205 colon): > 100 µM | TGI (MOLT-4 leukemia): > 100 µM

CCc1ccc(Cc2ccc(CC)c(NC(=O)C(=O)Cc3nc4ccccc4nc3C)c2CC)c(CC)c1NC(=O)C(=O)Cc1nc2ccccc2nc1C
TGI (HCC-2998 colon): > 100 µM | TGI (LOX IMVI melanoma): > 100 µM | TGI (ACHN renal): > 100 µM | TGI (HCT-15 colon): > 100 µM | TGI (COLO 205 colon): > 100 µM | TGI (MOLT-4 leukemia): > 100 µM

Nc1nc2nc3c(nc2c(=O)[nH]1)CN(c1ccc(C(=O)O)cc1)C3=O
TGI (HCC-2998 colon): > 100 µM | TGI (NCI/ADR-RES ovarian): > 100 µM | TGI (LOX IMVI melanoma): > 100 µM | TGI (HS 578T breast): > 100 µM | TGI (ACHN renal): > 100 µM | TGI (HCT-15 colon): > 100 µM | TGI (MDA-MB-435): > 100 µM | TGI (SR leukemia): > 100 µM | TGI (COLO 205 colon): > 100 µM

CCCCNC(=S)Nn1c(-c2ccccc2)nc2ccccc2c1=O
TGI (LOX IMVI melanoma): > 100 µM | TGI (ACHN renal): > 100 µM | TGI (HCT-15 colon): > 100 µM | TGI (COLO 205 colon): > 100 µM | TGI (MOLT-4 leukemia): > 100 µM

CN(C)CCCn1cnc2ncccc2c1=O
TGI (HCC-2998 colon): > 100 µM | TGI (LOX IMVI melanoma): > 100 µM | TGI (ACHN renal): > 100 µM | TGI (SR leukemia): > 100 µM | TGI (COLO 205 colon): > 100 µM | TGI (MOLT-4 leukemia): > 100 µM

Cc1cc2c(-c3nc4ccccc4[nH]3)c(O)c(O)cc2c(O)c1-c1c(C)cc2c(-c3nc4ccccc4[nH]3)c(O)c(O)cc2c1O
GI50 (HCC-2998 colon): 36.2 nM | TGI (HCC-2998 colon): 8.65 µM | GI50 (HS 578T breast): 0.0629 µM | TGI (HS 578T breast): > 50 µM | GI50 (ACHN renal): 29.2 nM | TGI (ACHN renal): 0.697 µM | GI50 (HCT-15 colon): 15.6 nM | TGI (HCT-15 colon): 19.8 µM | GI50 (MDA-MB-435): 24.8 nM | TGI (MDA-MB-435): 18.3 µM | GI50 (SR leukemia): 35 nM | TGI (SR leukemia): > 50 µM | GI50 (COLO 205 colon): 23.1 nM | TGI (COLO 205 colon): 0.913 µM | GI50 (MOLT-4 leukemia): 19 nM | TGI (MOLT-4 leukemia): > 50 µM

CCCOC(=O)C1CCC(=O)N1C(=O)C(Cl)Cl (configuration not stated)
TGI (HCC-2998 colon): > 100 µM | TGI (LOX IMVI melanoma): > 100 µM | TGI (ACHN renal): > 100 µM | TGI (HCT-15 colon): > 100 µM | TGI (COLO 205 colon): > 100 µM | TGI (MOLT-4 leukemia): > 100 µM

COC1OC(OC)C2C(c3c(C)cc(C)cc3C)=NOC12 (configuration not stated)
TGI (HCC-2998 colon): > 100 µM | TGI (LOX IMVI melanoma): > 100 µM | TGI (ACHN renal): > 100 µM | TGI (HCT-15 colon): > 100 µM | TGI (SR leukemia): > 100 µM | TGI (COLO 205 colon): > 100 µM | TGI (MOLT-4 leukemia): > 100 µM

COCCNC(=O)C1C(=O)N(CCOC)C(=O)/C1=N/N (configuration not stated)
TGI (LOX IMVI melanoma): > 100 µM | TGI (ACHN renal): > 100 µM | TGI (HCT-15 colon): > 100 µM | TGI (SR leukemia): > 100 µM | TGI (MOLT-4 leukemia): > 100 µM

C=C1C(=O)O[C@@H]2[C@@H]3O[C@@](C)(CC/C=C(\C)CCC[C@@H]2C)[C@H](O)C[C@@H]13
TGI (HCC-2998 colon): 18 µM | GI50 (NCI/ADR-RES ovarian): 1670 nM | TGI (NCI/ADR-RES ovarian): 4.53 µM | GI50 (LOX IMVI melanoma): 1770 nM | TGI (LOX IMVI melanoma): 4.03 µM | GI50 (HS 578T breast): 11.4 µM | TGI (HS 578T breast): > 100 µM | GI50 (ACHN renal): 1590 nM | TGI (ACHN renal): 3.11 µM | GI50 (HCT-15 colon): 1640 nM | TGI (HCT-15 colon): 4.53 µM | GI50 (MDA-MB-435): 1890 nM | TGI (MDA-MB-435): 5.47 µM | GI50 (COLO 205 colon): 2060 nM | TGI (COLO 205 colon): 4.21 µM | GI50 (MOLT-4 leukemia): 2750 nM | TGI (MOLT-4 leukemia): 7.64 µM

CCCCN(CCCC)C(=Nc1ccccc1)N(CCCC)CCCC
TGI (HCC-2998 colon): 15.4 µM | TGI (LOX IMVI melanoma): 13.6 µM | TGI (ACHN renal): 82 µM | TGI (COLO 205 colon): 14 µM | TGI (MOLT-4 leukemia): 13.1 µM

N#Cc1c([N+](=O)[O-])cc(C(F)(F)F)cc1[N+](=O)[O-]
TGI (LOX IMVI melanoma): 6.87 µM | TGI (ACHN renal): 20 µM | TGI (HCT-15 colon): 24.9 µM | TGI (COLO 205 colon): 14.8 µM | TGI (MOLT-4 leukemia): 4.95 µM
